The source of these data is patent US9663528B2, “Substituted 1,2,3,4,6,8,12,12a-octahydro-1,4-methanodipyrido[1,2-a:1',2'-d]pyrazines and methods for treating viral infections” (priority 2012, dated 2017).

Read-outs that look alike come from different tables or passages of the source.

Data set [1] can be described thus: in vitro. Conditions: human.
Data set [2] addresses PXR (Homo sapiens (Human), UniProt O75469). Kind of data set: Human PXR activation assay (luciferase reporter gene assay, DPX2 cells). The format is cell-based. The conditions noted are these: human. The method, then:
A stably transformed tumor cell line (DPX2) was plated on 96-well microtiter plates. DPX2 cells harbor the human PXR gene (NR112) and a luciferase reporter gene linked to two promoters identified in the human CYP3A4 gene, namely XREM and PXRE. […] The number of viable cells was determined and the reporter gene activity was assessed. Positive control: […]
(Reporter assays use an easily measured gene product as a stand-in for the process of interest.)

Data set [3] has as its target OCT2 (Homo sapiens (Human), UniProt O15244). As to the kind of experiment: OCT2 inhibition assay (14C-TEA uptake, OCT2-transfected MDCKII cells). The format is cell-based. The protocol: On assay day, cells were trypsinized and resuspended in Krebs-Henseleit Buffer (KHB), pH 7.4 at […]. Cells were preincubated for 15 min in assay plate before addition of test compound or substrate. Test compounds were serially diluted in DMSO and then spiked (2 μL) into in 0.4 mL KHB buffer containing wild-type or OCT2-transfected cells and incubated for 10 minutes. Assay was initiated with the addition of 0.1 mL of 100 μM ^14C-TEA in KHB buffer (20 μM final concentration after mixing). The concentration of TEA is based on the Km. After 10 minutes of incubation, the assay mixture was quenched with addition of 0.5 mL of ice-cold 1×PBS buffer. Samples were then centrifuged at 1000 rpm for 5 min and supernatants were removed. Wash steps were repeated four times with ice-cold PBS. Finally, the cell pellets were lysed with 0.2N NaOH and let sit at room temperature for at least 30 min to ensure complete lysis. Samples were then counted on liquid scintillation counter and dpm counts were used to perform the following calculations.

Data set [4] can be described thus: Pharmacokinetic analysis following intravenous administration to beagle dogs. The format is in vivo. The conditions noted are these: male, dog, 0.5 mg/kg; for MRT / clearance: beagle, in vivo, iv; for Vd: plasma, beagle dogs, IV infusion over 30 min, read-out: Vss. The method, then:
Pharmacokinetic analysis was performed on various test compounds following intravenous or oral administration to beagle dogs.
For pharmacokinetic analysis of intravenously administered compounds, the test compounds were formulated in 5% Ethanol, 55% PEG 300, and 40% water at 0.1 mg/mL for IV infusion. For pharmacokinetic analysis of orally administered compounds, the test compounds were formulated as an aqueous suspension in 0.1% Tween 20, 0.5% HPMC LV 100 in Di Water at 1 mg/kg.
Each dosing group consisted of 3 male, non-naïve purebred beagle dogs. At dosing, the animals weighed between 10 to 13 kg. The animals were fasted overnight prior to dose administration and up to 4 hr after dosing. For studies of intravenous administration, the test article was administered to the animals by intravenous infusion over 30 min. The rate of infusion was adjusted according to the body weight of each animal to deliver a dose of 0.5 mg/kg. For studies of oral administration, the test article was administered according to the body weight of each animal to deliver a dose of 1 mg/kg.
For pharmacokinetic analysis of intravenously administered compounds, serial venous blood samples (approximately 1 mL each) were taken from each animal at 0, 0.250, 0.483, 0.583, 0.750, 1.00, 1.50, 2.00, 4.00, 8.00, 12.0, and 24.0 hours after dosing. The blood samples were collected into Vacutainer™ tubes containing EDTA-K2 as the anti-coagulant and were immediately placed on wet ice pending centrifugation for plasma. An LC/MS/MS method was used to measure the concentration of the test compound in plasma. An aliquot of 100 μL of each plasma sample was added to a clean 96 well plate, and 400 μL of cold acetonitrile/internal standard solution (ACN)/(ISTD) was added. After protein precipitation, an aliquot of 110 μL of the supernatant was transferred to a clean 96-well plate and diluted with 300 μL of water. An aliquot of 25 μL of the above solution was injected into a TSQ Quantum Ultra LC/MS/MS system utilizing a Hypersil Gold C18 HPLC column (50×3.0 mm, 5 μm; Thermo-Hypersil Part #25105-053030). An Agilent 1200 series binary pump (P/N G1312A Bin Pump) was used for elution and separation, and an HTS Pal autosampler (LEAP Technologies, Carrboro, N.C.) was used for sample injection. A TSQ Quantum Ultra triple quadrupole mass spectrometer was utilized in selective reaction monitoring mode (Thermo Finnigan, San Jose, Calif.). Liquid chromatography was performed using two mobile phases: mobile phase A contained 1% acetonitrile in 2.5 mM ammonium formate aqueous solution with pH of 3.0, and mobile phase B contained 90% acetonitrile in 10 mM ammonium formate with pH of 4.6. Non-compartmental pharmacokinetic analysis was performed on the plasma concentration-time data. The resulting data are shown in the first three columns of Table 4. In Table 4, CL refers to clearance, which characterizes the rate at which drug is removed from plasma. The lower the clearance of a drug is, the longer the elimination half-life is in the body. Vss refers to the steady state volume of distribution and indicates how well a drug is distributed into the tissues. The larger the Vss is, the longer the elimination half-life is in the body. MRT refers to mean residence time, which is a measure of the average time molecules exist in the body.

Where [5] appears, read: 15 μM, relative to maximum fold induction by 10 or 20 μM rifampicin, DPX2 cells, 24 hours, read-out: % Emax at 15 μM.
The mark [6] stands for this setting: MT-4 cells, mock-infected, CC50 nM in MT-4, MT-4 cells, 5 days incubation.
[7] abbreviates: OCT2 mediated uptake of 14C-TEA (20 μM), MDCKII cells, read-out: IC50.

Sequence of OCT2 (O15244 whole entry): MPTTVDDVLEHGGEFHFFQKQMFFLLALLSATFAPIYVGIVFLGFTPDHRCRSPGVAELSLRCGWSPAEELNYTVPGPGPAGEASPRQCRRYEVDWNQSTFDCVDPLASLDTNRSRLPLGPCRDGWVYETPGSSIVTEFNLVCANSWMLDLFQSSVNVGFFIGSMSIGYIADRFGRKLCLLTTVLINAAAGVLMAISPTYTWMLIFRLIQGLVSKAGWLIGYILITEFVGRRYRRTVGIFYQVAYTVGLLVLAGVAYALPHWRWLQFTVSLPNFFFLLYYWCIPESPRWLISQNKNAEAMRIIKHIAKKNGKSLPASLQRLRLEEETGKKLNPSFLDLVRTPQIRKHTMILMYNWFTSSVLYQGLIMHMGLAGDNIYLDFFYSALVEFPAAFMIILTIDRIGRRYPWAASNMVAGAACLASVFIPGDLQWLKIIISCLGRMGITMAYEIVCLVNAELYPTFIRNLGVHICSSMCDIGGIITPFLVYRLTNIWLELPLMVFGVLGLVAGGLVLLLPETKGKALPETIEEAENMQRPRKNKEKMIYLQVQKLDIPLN
Sequence of PXR (O75469 whole entry): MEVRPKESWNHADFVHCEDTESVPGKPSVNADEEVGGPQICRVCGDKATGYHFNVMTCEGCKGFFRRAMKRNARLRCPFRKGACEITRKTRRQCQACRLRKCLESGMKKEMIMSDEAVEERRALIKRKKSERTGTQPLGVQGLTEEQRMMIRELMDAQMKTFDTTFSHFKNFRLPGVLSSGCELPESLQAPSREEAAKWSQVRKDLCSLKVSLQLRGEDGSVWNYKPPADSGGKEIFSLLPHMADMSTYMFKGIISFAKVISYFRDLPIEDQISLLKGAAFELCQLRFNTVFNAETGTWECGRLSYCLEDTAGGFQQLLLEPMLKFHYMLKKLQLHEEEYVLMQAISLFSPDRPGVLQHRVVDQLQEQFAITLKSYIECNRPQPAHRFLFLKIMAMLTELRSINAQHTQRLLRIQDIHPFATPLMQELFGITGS

In the case of `C[C@H]1C[C@@H]2C[C@H]1O[C@H]1Cn3cc(C(=O)NCc4ccc(F)cc4F)c(=O)c(O)c3C(=O)N21` [Compound 39, (2R,3S,5R,3aS)-N-(2,4-difluorobenzyl)-8-hydroxy-3-methyl-7,9-dioxo-2,3,4,5,7,9,13,13a-octahydro-2,5-methanopyrido[1′,2′:4,5]pyrazino[2,1-b][1,3]oxazepine-10-carboxamide], the CC50 at 5 days in data set [1] (CC50 nM in MT-4) is 12200 nM. Further, in data set [2] (setting [5]), the Emax at 24 h, 15 µM worked out at 6%. The molecule also registered an IC50 in data set [3] of 0.358 µM.
As for `O=C(NCc1ccc(F)cc1F)c1cn2c(c(O)c1=O)C(=O)N1[C@H]3CC[C@H](CC3)[C@H]1C2` [Compound 100, (1R,4R,12aS)-N-(2,4-difluorobenzyl)-7-hydroxy-6,8-dioxo-1,2,3,4,6,8,12,12a-octahydro-1,4-ethanodipyrido[1,2-a:1′,2′-d]pyrazine-9-carboxamide], the CC50 at 5 days in data set [1] (setting [6]) worked out at 11600 nM. In addition, in data set [2] (setting [5]), the Emax at 24 h, 15 µM amounted to 45%. Moreover, in data set [3] (setting [7]), the IC50 was 0.45 µM.
In data set [1] (CC50 nM in MT-4), `C[C@@H](NC(=O)c1cn2c(c(O)c1=O)C(=O)N1[C@@H]3CC[C@@H](C3)O[C@H]1C2)c1ccc(F)cc1F` [Compound 11, (2S,5R,13aS)-N—((R)-1-(2,4-difluorophenyl)ethyl)-8-hydroxy-7,9-dioxo-2,3,4,5,7,9,13,13a-octahydro-2,5-methanopyrido[1′,2′:4,5]pyrazino[2,1-b][1,3]oxazepine-10-carboxamide] showed a CC50 at 5 days of 10300 nM. It took 10 µM to reach half-maximal inhibition in data set [3] (IC50).
Consider `C[C@@H]1CCO[C@H]2Cn3cc(C(=O)NC4(c5ccc(F)cc5F)CC4)c(=O)c(O)c3C(=O)N12` [Compound 5, (4R,12aS)-N-(1-(2,4-difluorophenyl)cyclopropyl)-7-hydroxy-4-methyl-6,8-dioxo-3,4,6,8,12,12a-hexahydro-2H-[1,3]oxazino[3,2-d]pyrido[1,2-a]pyrazine-9-carboxamide], for which the CC50 at 5 days in data set [1] (setting [6]) stood at 10500 nM. The Emax at 24 h, 15 µM in data set [2] (setting [5]) was 32%. The IC50 in data set [3] (setting [7]) was 2.23 µM.
In the case of `O=C(NCc1ccc(F)cc1F)c1cn2c(c(O)c1=O)C(=O)N1C(C2)O[C@@H]2CCC[C@H]1C2` (stereo partly drawn) [Compound 8, (2R,6S)-N-(2,4-difluorobenzyl)-9-hydroxy-8,10-dioxo-3,4,5,6,8,10,14,14a-octahydro-2H-2,6-methanopyrido[1′,2′:4,5]pyrazino[2,1-b][1,3]oxazocine-11-carboxamide], the CC50 at 5 days in data set [1] (CC50 nM in MT-4) is 13900 nM. The Emax at 24 h, 15 µM in data set [2] was 7%. Moreover, in data set [4], the mean residence time MRT was determined as 1.8 h, the clearance was 8.3 mL/min/kg and the Vd came out at 0.87 L/kg.
Regarding `O=C(NCc1ccc(F)cc1F)c1cn2c(c(O)c1=O)C(=O)N1C(C2)O[C@H]2CCC[C@@H]1C2` (stereo partly drawn) [Compound 7, (2S,6R)-N-(2,4-difluorobenzyl)-9-hydroxy-8,10-dioxo-3,4,5,6,8,10,14,14a-octahydro-2H-2,6-methanopyrido[1′,2′:4,5]pyrazino[2,1-b][1,3]oxazocine-11-carboxamide], the CC50 at 5 days in data set [1] (CC50 nM in MT-4) was found to be 15600 nM. This molecule also displayed an Emax at 24 h, 15 µM in data set [2] of 6%. Also, in data set [4], the mean residence time MRT was 2.3 h, the clearance is 8.5 mL/min/kg and the Vd came to 1.2 L/kg.
For the molecule `O=C(NCc1cc(F)c(F)cc1F)c1cn2c(c(O)c1=O)C(=O)N1[C@H]3CC[C@H](C3)O[C@@H]1C2` [Compound 64, (2R,5S,13aR)-8-hydroxy-7,9-dioxo-N-(2,4,5-trifluorobenzyl)-2,3,4,5,7,9,13,13a-octahydro-2,5-methanopyrido[1′,2′:4,5]pyrazino[2,1-b][1,3]oxazepine-10-carboxamide], in data set [1] (CC50 nM in MT-4), the CC50 at 5 days came to 3330 nM. For the same molecule, the Emax at 24 h, 15 µM in data set [2] came to 8%. For the same molecule, in data set [3] (setting [7]), the IC50 worked out at 0.094 µM.
With `O=C(NCc1ccc(F)cc1F)c1cn2c(c(O)c1=O)C(=O)N1C(C2)[C@H]2CC[C@@H]1C2` (stereo in doubt) [Compound 48, (1S,4R,12aS)-N-(2,4-difluorobenzyl)-7-hydroxy-6,8-dioxo-1,2,3,4,6,8,12,12a-octahydro-1,4-methanodipyrido[1,2-a:1′,2′-d]pyrazine-9-carboxamide], the CC50 at 5 days in data set [1] (CC50 nM in MT-4) came out at 14000 nM. Besides, the Emax at 24 h, 15 µM in data set [2] (setting [5]) stood at 5%. This molecule gave a half-maximal inhibitory concentration (IC50) in data set [3] of 4.91 µM.
In turn, `O=C(NCc1c(F)cc(F)cc1F)c1cn2c(c(O)c1=O)C(=O)N1[C@@H]3CC[C@@H](C3)O[C@H]1C2` [Compound 45, (13aS)-8-hydroxy-7,9-dioxo-N-(2,4,6-trifluorobenzyl)-2,3,4,5,7,9,13,13a-octahydro-2,5-methanopyrido[1′,2′:4,5]pyrazino[2,1-b][1,3]oxazepine-10-carboxamide] gave a CC50 at 5 days in data set [1] (setting [6]) of 15800 nM. For the same molecule, in data set [2] (setting [5]), the Emax at 24 h, 15 µM is 19%. Also, the IC50 in data set [3] (setting [7]) was found to be 0.137 µM.
As to `CC1CC2CC1OC1Cn3cc(C(=O)NCc4ccc(F)cc4F)c(=O)c(O)c3C(=O)N21` (single isomer, unassigned) [Compound 40], the CC50 at 5 days in data set [1] (CC50 nM in MT-4) was found to be 9560 nM. In addition, the Emax at 24 h, 15 µM in data set [2] (setting [5]) was determined as 0%. For the same molecule, the IC50 in data set [3] was found to be 0.204 µM.
Take `O=C(NCc1c(F)cc(F)cc1F)c1cn2c(c(O)c1=O)C(=O)N1[C@H]3C[C@H](C3)[C@H]1C2` (single isomer, unassigned) [Compound 96]: the CC50 at 5 days in data set [1] (setting [6]) turned out to be 26600 nM. Also, the Emax at 24 h, 15 µM in data set [2] (setting [5]) was 11%. For the same molecule, the IC50 in data set [3] (setting [7]) was found to be 1.36 µM.
With `O=C(NCc1c(F)cc(F)cc1F)c1cn2c(c(O)c1=O)C(=O)N1[C@@H]3C[C@@H](C[C@H]3F)[C@@H]1C2` [Compound 82, (1S,3R,4R,12aR)-3-fluoro-7-hydroxy-6,8-dioxo-N-(2,4,6-trifluorobenzyl)-1,2,3,4,6,8,12,12a-octahydro-1,4-methanodipyrido[1,2-a:1′,2′-d]pyrazine-9-carboxamide], in data set [1] (CC50 nM in MT-4), the CC50 at 5 days is 30400 nM. In addition, in data set [2], the Emax at 24 h, 15 µM came out at 1%. Besides, in data set [3], the IC50 was determined as 10 µM.
The molecule `C[C@H](NC(=O)c1cn2c(c(O)c1=O)C(=O)N1[C@@H]3CC[C@@H](C3)O[C@H]1C2)c1ccc(F)cc1F` [Compound 13, (2S,5R,13aS)-N—((S)-1-(2,4-difluorophenyl)ethyl)-8-hydroxy-7,9-dioxo-2,3,4,5,7,9,13,13a-octahydro-2,5-methanopyrido[1′,2′:4,5]pyrazino[2,1-b][1,3]oxazepine-10-carboxamide] showed a CC50 at 5 days in data set [1] (CC50 nM in MT-4) of 12700 nM. The same molecule returned an IC50 in data set [3] of 0.61 µM.
In turn, `O=C(NCc1ccc(Cl)cc1F)c1cn2c(c(O)c1=O)C(=O)N1[C@@H]3CC[C@@H](C3)O[C@H]1C2` [Compound 17, (2S,5R,13aS)-N-(4-chloro-2-fluorobenzyl)-8-hydroxy-7,9-dioxo-2,3,4,5,7,9,13,13a-octahydro-2,5-methanopyrido[1′,2′:4,5]pyrazino[2,1-b][1,3]oxazepine-10-carboxamide] had a CC50 at 5 days in data set [1] (CC50 nM in MT-4) of 6610 nM. This molecule returned an Emax at 24 h, 15 µM in data set [2] of 7%.

Usually Emax stands for the maximal effect, on the per cent scale that the assay sets. A word on the IC50: it is the midpoint of a concentration-inhibition curve. As a reminder, the MRT is a mean duration of stay, worked out from the concentration-time curve. What is called clearance is a measure of how efficiently the substance is removed, as volume per time.
